Experiment [1] concerns the target Cy5-labelled Mcl1 (amino acids 171-321) C286S protein (UniProtKB Q07820) (Homo sapiens (Human), UniProt Q07820, C286S). Briefly: Inhibition of Mcl-1 by the fluorescence quenching assay (Example A, Method B). The experiment is classed as binding. An outline of the steps:
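Cy5-labelled Mcl1 171-321 C286S (1 nM) quenched by TQ5WS-labelled PUMA peptide (10, 20 or 400 nM); displacement raises fluorescence (Ex 620/Em 680 nm). Buffer 10 mM HEPES, 150 mM NaCl, 0.05% Tween 20, pH 7.4, 5% DMSO; 2 h at room temperature, 11-point curves, IC50 converted to Ki (cKi/eKi).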

Experiment [2] relates to H929 multiple myeloma tumor line. Briefly: In vitro cytotoxicity, MTT assay (Example B, Method A). The conditions noted are these: H929 cells, 48 hours exposure, read-out: C50. The experiment is classed as cell-based. The procedure: The cytotoxicity studies were carried out on the H929 multiple myeloma tumor line.
The cells are distributed onto microplates and exposed to the test compounds for 48 hours. The cell viability is then quantified by a colorimetric assay, the Microculture Tetrazolium Assay (Carmichael et al, Cancer Res. 1987, 47, 939-942).
The results are expressed in C50 which means concentration corresponding to […] of effect/inhibition.
On the technique in general: Tetrazolium assays rely on reduction of a dye to a coloured formazan, in cell work by metabolically active cells.

Where two headings read alike, the source gives them in different places.

Drawing on patent US20240150293A1, “SPIROCYCLOHEXANE DERIVATIVES, PHARMACEUTICAL COMPOSITIONS CONTAINING THEM AND THEIR USES AS ANTI-APOPTOTIC INHIBITORS” (LES LABORATOIRES SERVIER, priority 2021, published 2024), this text covers Ki and IC50 for 22 molecules.

Broadly, the Ki is a measure of affinity in units of concentration, obtained from inhibition or displacement.

Chain of Cy5-labelled Mcl1 (amino acids 171-321) C286S protein (Q07820 171-321 C286S): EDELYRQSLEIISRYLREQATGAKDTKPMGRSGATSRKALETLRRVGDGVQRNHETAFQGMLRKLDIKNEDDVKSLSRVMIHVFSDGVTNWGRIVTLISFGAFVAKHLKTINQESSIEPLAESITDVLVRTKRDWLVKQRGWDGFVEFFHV

With `CC(O)c1ccc2c(c1)[C@]1(CC[C@@](Nc3cccc(Cl)c3)(C(=O)O)CC1)[C@@H](C[C@@H](C)COc1ccnc3c1[C@H](C)CC[C@H]3F)C2` (single isomer, unassigned) [Example 863], in experiment [1], the Ki was found to be 0.000382 µM. For the same molecule, the IC50 in experiment [2] was 0.0767 µM.

`CC(O)c1ccc2c(c1)[C@]1(CC[C@@](Nc3cccc(Cl)c3)(C(=O)O)CC1)[C@@H](C[C@@H](C)COc1ccnc3c1[C@H](C)CC[C@H]3F)C2` (single isomer, unassigned) [Example 864]: in experiment [1], the Ki was 0.000374 µM. Moreover, in experiment [2], the IC50 was 0.183 µM.

Turning to `O=C(O)[C@]1(Nc2cccc(Cl)c2)CC[C@@]2(CC1)c1ccccc1CN2CCCOc1ccnc2ccsc12` [Example 36, (1s,4s)-4-(3-chloroanilino)-2′-{3-[(thieno[3,2-b]pyridin-7-yl)oxy]propyl}-2′,3′-dihydrospiro[cyclohexane-1,1′-isoindole]-4-carboxylic acid], the Ki in experiment [1] (Ki determined from IC50) came to 0.749 µM. The IC50 in experiment [2] (Homo sapiens, NCI-H929, 48 h) came to 18.5 µM.

Take `O=C(O)[C@]1(Nc2cccc(Cl)c2)CC[C@]2(CC1)C(Br)=Cc1ccccc12` [Example 75, (1s,4s)-2′-bromo-4-(3-chloroanilino)spiro[cyclohexane-1,1′-indene]-4-carboxylic acid]: in experiment [1] (Ki determined from IC50), the Ki came out at 0.119 µM. Besides, in experiment [2] (Homo sapiens, NCI-H929, 48 h), the IC50 was found to be 30 µM.

On to `COCC(COc1ccnc2c1CCC2)CC1Cc2ccccc2[C@]12CC[C@@](Nc1cccc(Cl)c1)(C(=O)O)CC2` (some centres unmarked) [Example 494, (1r,4r)-4-(3-chloroanilino)-2′-(2-{[(6,7-dihydro-5H-cyclopenta[b]pyridin-4-yl)oxy]methyl}-3-methoxypropyl)-2′,3′-dihydrospiro[cyclohexane-1,1′-indene]-4-carboxylic acid], for which the Ki in experiment [1] was determined as 0.00362 µM. Also, the IC50 in experiment [2] (Homo sapiens, NCI-H929, 48 h) was found to be 0.808 µM.

With `O=C(O)[C@]1(Nc2cccc(Cl)c2)CC[C@@]2(CC1)c1ccccc1CC2CC(COc1ccccc1)COc1ccnc2ccsc12` (some centres unmarked) [Example 501, (1r,4r)-4-(3-chloroanilino)-2′-{2-(phenoxymethyl)-3-[(thieno[3,2-b]pyridin-7-yl)oxy]propyl}-2′,3′-dihydrospiro[cyclohexane-1,1′-indene]-4-carboxylic acid], the Ki in experiment [1] is 0.0048 µM. For the same molecule, the IC50 in experiment [2] (Homo sapiens, NCI-H929, 48 h) was 0.431 µM.

Turning to `O=C(O)[C@]1(Nc2cccc(Cl)c2)CC[C@@]2(CC1)c1ccccc1CC2CC(COc1ccnc2ccsc12)C(F)F` (some centres unmarked) [Example 511, (1r,4r)-4-(3-chloroanilino)-2′-(3,3-difluoro-2-{[(thieno[3,2-b]pyridin-7-yl)oxy]methyl}propyl)-2′,3′-dihydrospiro[cyclohexane-1,1′-indene]-4-carboxylic acid], the Ki in experiment [1] stood at 0.0199 µM. In addition, the IC50 in experiment [2] (Homo sapiens, NCI-H929, 48 h) came to 2.72 µM.

Consider `CC[C@@H](COc1ccncc1)C[C@H]1Cc2ccccc2[C@]12CC[C@@](Nc1cccc(Cl)c1)(C(=O)O)CC2` [Example 544, (1r,2′S,4S)-4-(3-chloroanilino)-2′-[(2R)-2-{[(pyridin-4-yl)oxy]methyl}butyl]-2′,3′-dihydrospiro[cyclohexane-1,1′-indene]-4-carboxylic acid], for which the Ki in experiment [1] stood at 0.0224 µM. Besides, the IC50 in experiment [2] (Homo sapiens, NCI-H929, 48 h) is 8.32 µM.

With `O=C(O)[C@]1(Nc2cccc(Cl)c2)CC[C@@]2(CC1)c1ccccc1C[C@@H]2C[C@H](COc1ccnc2ccsc12)c1ccccc1` [Example 547, (1r,2′S,4S)-4-(3-chloroanilino)-2′-{(2S)-2-phenyl-3-[(thieno[3,2-b]pyridin-7-yl)oxy]propyl}-2′,3′-dihydrospiro[cyclohexane-1,1′-indene]-4-carboxylic acid], the Ki in experiment [1] worked out at 0.00695 µM. For the same molecule, the IC50 in experiment [2] (Homo sapiens, NCI-H929, 48 h) stood at 0.376 µM.

With `O=C(O)[C@]1(Nc2cccc(Cl)c2)CC[C@@]2(CC1)c1ccccc1C[C@@H]2C[C@H](COc1ccncc1)c1ccccc1` [Example 555, (1r,2′S,4S)-4-(3-chloroanilino)-2′-{(2S)-2-phenyl-3-[(pyridin-4-yl)oxy]propyl}-2′,3′-dihydrospiro[cyclohexane-1,1′-indene]-4-carboxylic acid], the Ki in experiment [1] was found to be 0.0146 µM. The IC50 in experiment [2] (Homo sapiens, NCI-H929, 48 h) was 2.86 µM.

As to `CCCC#C[C@H](COc1ccnc2ccsc12)CC1=Cc2ccccc2[C@]12CC[C@@](Nc1cccc(Cl)c1)(C(=O)O)CC2` [Example 564, (1r,4R)-4-(3-chloroanilino)-2′-[(2R)-2-{[(thieno[3,2-b]pyridin-7-yl)oxy]methyl}hept-3-yn-1-yl]spiro[cyclohexane-1,1′-indene]-4-carboxylic acid], the Ki in experiment [1] stood at 0.0299 µM. Moreover, the IC50 in experiment [2] (Homo sapiens, NCI-H929, 48 h) amounted to 16.1 µM.

Consider `CCCC#C[C@@H](COc1ccnc2ccsc12)CC1=Cc2ccccc2[C@]12CC[C@@](Nc1cccc(Cl)c1)(C(=O)O)CC2` [Example 565, (1r,4S)-4-(3-chloroanilino)-2′-[(2S)-2-{[(thieno[3,2-b]pyridin-7-yl)oxy]methyl}hept-3-yn-1-yl]spiro[cyclohexane-1,1′-indene]-4-carboxylic acid], for which the Ki in experiment [1] amounted to 0.0108 µM. The IC50 in experiment [2] (Homo sapiens, NCI-H929, 48 h) is 2.39 µM.

Turning to `C[C@@H]1CCCc2nccc(OCC(CC3=Cc4ccccc4[C@]34CC[C@@](Nc3cccc(Cl)c3)(C(=O)O)CC4)c3ccccn3)c21` (stereo partly drawn) [Example 566, (1r,4R)-4-(3-chloroanilino)-2′-[3-{[(5R)-5-methyl-5,6,7,8-tetrahydroquinolin-4-yl]oxy}-2-(pyridin-2-yl)propyl]spiro[cyclohexane-1,1′-indene]-4-carboxylic acid], in experiment [1], the Ki was found to be 0.00434 µM. Moreover, in experiment [2] (Homo sapiens, NCI-H929, 48 h), the IC50 was 0.721 µM.

On to `C[C@@H](CNc1ccncc1)C[C@H]1Cc2ccccc2[C@]12CC[C@@](Nc1cccc(Cl)c1)(C(=O)O)CC2` [Example 575, (1r,2′S,4S)-4-(3-chloroanilino)-2′-{(2R)-2-methyl-3-[(pyridin-4-yl)amino]propyl}-2′,3′-dihydrospiro[cyclohexane-1,1′-indene]-4-carboxylic acid], for which the Ki in experiment [1] came to 0.35 µM. Besides, the IC50 in experiment [2] (Homo sapiens, NCI-H929, 48 h) amounted to 16.2 µM.

As to `C[C@@H](COc1ccncc1C1CC1)C[C@H]1Cc2ccccc2[C@]12CC[C@@](Nc1cccc(Cl)c1)(C(=O)O)CC2` [Example 577, (1r,2′S,4S)-4-(3-chloroanilino)-2′-{(2R)-3-[(3-cyclopropylpyridin-4-yl)oxy]-2-methylpropyl}-2′,3′-dihydrospiro[cyclohexane-1,1′-indene]-4-carboxylic acid], the Ki in experiment [1] was determined as 0.0104 µM. In experiment [2] (Homo sapiens, NCI-H929, 48 h), the IC50 turned out to be 1.19 µM.

As to `C[C@@H](COc1ccncc1C(F)(F)F)C[C@H]1Cc2ccccc2[C@]12CC[C@@](Nc1cccc(Cl)c1)(C(=O)O)CC2` [Example 578, (1r,2′S,4S)-4-(3-chloroanilino)-2′-[(2R)-2-methyl-3-{[3-(trifluoromethyl)pyridin-4-yl]oxy}propyl]-2′,3′-dihydrospiro[cyclohexane-1,1′-indene]-4-carboxylic acid], in experiment [1], the Ki was 0.00784 µM. The IC50 in experiment [2] (Homo sapiens, NCI-H929, 48 h) stood at 0.471 µM.

In the case of `Cc1cncc(C)c1OC[C@H](C)C[C@H]1Cc2ccccc2[C@]12CC[C@@](Nc1cccc(Cl)c1)(C(=O)O)CC2` [Example 584, (1r,2′S,4S)-4-(3-chloroanilino)-2′-{(2R)-3-[(3,5-dimethylpyridin-4-yl)oxy]-2-methylpropyl}-2′,3′-dihydrospiro[cyclohexane-1,1′-indene]-4-carboxylic acid], the inhibition constant (Ki) in experiment [1] amounted to 0.00703 µM. Also, the IC50 in experiment [2] (Homo sapiens, NCI-H929, 48 h) was 1.76 µM.

On to `Cc1c(OC[C@H](C)C[C@H]2Cc3ccccc3[C@]23CC[C@@](Nc2cccc(Cl)c2)(C(=O)O)CC3)ccnc1CO` [Example 586, (1r,2′S,4S)-4-(3-chloroanilino)-2′-[(2R)-3-{[2-(hydroxymethyl)-3-methylpyridin-4-yl]oxy}-2-methylpropyl]-2′,3′-dihydrospiro[cyclohexane-1,1′-indene]-4-carboxylic acid], for which the Ki in experiment [1] was 0.00262 µM. Moreover, in experiment [2] (Homo sapiens, NCI-H929, 48 h), the IC50 amounted to 1.61 µM.

As to `CC(C)c1cnccc1OC[C@H](C)C[C@H]1Cc2ccccc2[C@]12CC[C@@](Nc1cccc(Cl)c1)(C(=O)O)CC2` [Example 587, (1r,2′S,4S)-4-(3-chloroanilino)-2′-[(2R)-2-methyl-3-{[3-(propan-2-yl)pyridin-4-yl]oxy}propyl]-2′,3′-dihydrospiro[cyclohexane-1,1′-indene]-4-carboxylic acid], the Ki in experiment [1] amounted to 0.00393 µM. In experiment [2] (Homo sapiens, NCI-H929, 48 h), the IC50 turned out to be 0.679 µM.

In the case of `C[C@@H](COc1ccnc2ccsc12)CC1=Cc2ccccc2[C@]12CC[C@@](Nc1cccc(Cl)c1)(C(=O)O)CC2` [Example 589, (1r,4R)-4-(3-chloroanilino)-2′-{(2R)-2-methyl-3-[(thieno[3,2-b]pyridin-7-yl)oxy]propyl}spiro[cyclohexane-1,1′-indene]-4-carboxylic acid], the Ki in experiment [1] stood at 0.00839 µM. Besides, the IC50 in experiment [2] (Homo sapiens, NCI-H929, 48 h) stood at 0.694 µM.

For the molecule `C[C@@H](COc1ccnc2ccsc12)C[C@H]1Cc2ccccc2[C@]12CC[C@@](Nc1cccc(Cl)c1)(C(=O)O)CC2` [Example 591, (1r,2′S,4S)-4-(3-chloroanilino)-2′-{(2R)-2-methyl-3-[(thieno[3,2-b]pyridin-7-yl)oxy]propyl}-2′,3′-dihydrospiro[cyclohexane-1,1′-indene]-4-carboxylic acid], the Ki in experiment [1] stood at 0.00272 µM. Besides, the IC50 in experiment [2] (Homo sapiens, NCI-H929, 48 h) was found to be 0.438 µM.

Turning to `C[C@@H](COc1ncnc2c1[C@H](C)CC2)CC1Cc2ccccc2[C@]12CC[C@@](Nc1cccc(Cl)c1)(C(=O)O)CC2` (stereo partly drawn) [Example 597, (1r,4R)-4-(3-chloroanilino)-2′-[(2R)-2-methyl-3-{[(5R)-5-methyl-6,7-dihydro-5H-cyclopenta[d]pyrimidin-4-yl]oxy}propyl]-2′,3′-dihydrospiro[cyclohexane-1,1′-indene]-4-carboxylic acid], the Ki in experiment [1] is 0.00536 µM. For the same molecule, the IC50 in experiment [2] (Homo sapiens, NCI-H929, 48 h) turned out to be 1.31 µM.
